Patent US20210403460A1, “INHIBITORS OF MUTANT ISOCITRATE DEHYDROGENASES AND COMPOSITIONS AND METHODS THEREOF” (IsoCure Biosciences Inc., priority 2016, published 2021)

Experiments:
Type in all cases: biochemical
WT IDH1 = WT IDH1 (Homo sapiens, UniProt O75874); test: Wild-type IDH1 enzyme assay, NADPH production by diaphorase/resazurin coupled detection; details: 60 min preincubation with enzyme/NADP, 45 min reaction, room temperature
Description: (§1) Compounds were tested against 3 enzymes WT IDH1, IDH1 R132C, IDH1 R132H
(§2) Assay Format: The production or depletion of NADPH by IDH enzymes was measured by diaphorase/resazurin coupled detection.
Reaction Procedure Wild-Type:
(§3) 1. Deliver enzyme/NADP in the reaction buffer into wells of reaction plate except No Enzyme control wells. Add buffer+NADP into No Enzyme wells. 2. Deliver compound in 100% DMSO into the enzyme mixture. Spin down and preincubate for 60 min at room temperature. 3. Deliver Substrate mixture to initiate the reaction. Spin down plate and gently shake 45 minutes at room temperature.
4. Make a 3× mix of Detection mixture in the reaction buffer, and add detection mixture into the reaction. Spin down. 5. Incubate at room temperature for 10 minutes.
6. Measure in Envision. (Ex/Em=535/590 nm)
7. Subtract background (the average value of the No Enzyme control wells) from raw data. Average the DMSO control wells and set value as 100%. Take ratio of measured data/average DMSO control value times 100% to arrive at % activity.

IDH1 (R132H) = IDH1 (R132H) (Homo sapiens, UniProt O75874, R132H); test: IDH1 R132H enzyme assay, NADPH depletion by diaphorase/resazurin coupled detection; details: 60 min preincubation with enzyme/NADPH, 45 min reaction, room temperature
Description: as §1, §2
(§4) Reaction Procedure Mutant:
as §3, with “8.” for “1.”, “enzyme/NADPH” for “enzyme/NADP”, “buffer+NADPH” for “buffer+NADP”, “9.” for “2.”, “10.” for “3.”
(§5) Detection Step (the Same as Wt):
(§6) 11. Make a 3× mix of Detection mixture in the reaction buffer, and add detection mixture into the reaction. Spin down. 12. Incubate at room temperature for 10 minutes.
(§7) 13. Measure in Envision. (Ex/Em=535/590 nm)
(§8) 14. […] (the average value of the No Enzyme wells). Average the DMSO control wells and set value as 100%. Take ratio of measured data/average DMSO control value times 100% to arrive at % activity.

IDH1 (R132C) = IDH1 (R132C) (Homo sapiens, UniProt O75874, R132C); test: IDH1 R132C enzyme assay, NADPH depletion by diaphorase/resazurin coupled detection; details: 60 min preincubation with enzyme/NADPH, 45 min reaction, room temperature
Description: as §1, §2, §4
as §3, with “8.” for “1.”, “enzyme/NADPH” for “enzyme/NADP”, “buffer+NADPH” for “buffer+NADP”, “9.” for “2.”, “10.” for “3.”
as §5, §6, §7, §8

Sequence of IDH1 (R132H) (O75874 whole entry R132H): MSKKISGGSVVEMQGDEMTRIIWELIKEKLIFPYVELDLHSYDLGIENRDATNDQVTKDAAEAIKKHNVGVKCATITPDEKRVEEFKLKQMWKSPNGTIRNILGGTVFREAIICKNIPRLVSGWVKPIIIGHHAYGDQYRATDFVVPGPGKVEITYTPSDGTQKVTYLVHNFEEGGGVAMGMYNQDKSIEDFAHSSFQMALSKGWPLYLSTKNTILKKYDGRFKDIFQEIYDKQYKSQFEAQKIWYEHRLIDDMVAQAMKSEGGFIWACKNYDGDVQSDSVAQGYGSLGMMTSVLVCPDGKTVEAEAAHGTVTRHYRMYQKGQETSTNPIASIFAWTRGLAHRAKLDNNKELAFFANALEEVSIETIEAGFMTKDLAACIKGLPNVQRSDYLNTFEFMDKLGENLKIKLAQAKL
Sequence of IDH1 (R132C) (O75874 whole entry R132C): as the sequence (O75874 whole entry R132H) above, with H132C counted along it
Sequence of WT IDH1 (O75874 whole entry): as the sequence (O75874 whole entry R132H) above, with H132R counted along it

Row | SMILES | IC50 (WT IDH1) [nM] | IC50 (IDH1 (R132H)) [nM] | IC50 (IDH1 (R132C)) [nM]
1 | C=CC(=O)Nc1ccc(Nc2ccc([C@H](C)Nc3nccc(N4C(=O)OC[C@@H]4C(C)C)n3)cc2)nc1 [IS03, N-(6-((4-((S)-1-((4-((S)-4-isopropyl-2-oxooxazolidin-3-yl)pyrimidin-2-yl)amino)ethyl)phenyl)amino)pyridin-3-yl)acrylamide] | 8520 | 3.61 | 3.35
2 | C=CC(=O)Nc1ccc(Nc2ccc([C@H](C)Nc3nccc(N4C(=O)OC[C@@H]4C(C)C)n3)cc2)cc1 [IS04, N-(4-((4-((S)-1-((4-((S)-4-isopropyl-2-oxooxazolidin-3-yl)pyrimidin-2-yl)amino)ethyl)phenyl)amino)phenyl)acrylamide] | > 10000 | 10.5 | 7.55
3 | C=CC(=O)Nc1cccc(Nc2ccc([C@H](C)Nc3nccc(N4C(=O)OC[C@@H]4C(C)C)n3)cc2)c1 [IS05, N-(3-((4-((S)-1-((4-((S)-4-isopropyl-2-oxooxazolidin-3-yl)pyrimidin-2-yl)amino)ethyl)phenyl)amino)phenyl)acrylamide] | > 1480 |  | 4.67
4 | C=CC(=O)Nc1ccc(N(C)c2cnc(C(C)Nc3nccc(N4C(=O)OC[C@@H]4C(C)C)n3)nc2)cc1 (stereo partly drawn) [IS012, N-(4-((2-(1-((4-((S)-4-isopropyl-2-oxooxazolidin-3-yl)pyrimidin-2-yl)amino)ethyl)pyrimidin-5-yl)(methyl)amino)phenyl)acrylamide] |  | 161 | 198

Other lines, results leading:

Row | IC50 (WT IDH1) [nM] | IC50 (IDH1 (R132H)) [nM] | IC50 (IDH1 (R132C)) [nM] | SMILES
5 | 9460 | 1.32 | 1.61 | C=CC(=O)N1CCN(Cc2ccc([C@H](C)Nc3nccc(N4C(=O)OC[C@@H]4C(C)C)n3)cc2)CC1 [IS01, (S)-3-(2-(((S)-1-(4-((4-acryloylpiperazin-1-yl)methyl)phenyl)ethyl)amino)pyrimidin-4-yl)-4-isopropyloxazolidin-2-one]
6 |  | 340 |  | C=CC(=O)N1CCC(Oc2ccc(C(C)Nc3nccc(N4C(=O)OC[C@@H]4C(C)C)n3)cn2)CC1 (stereo partly drawn) [IS07, (4S)-3-(2-((1-(6-((1-acryloylpiperidin-4-yl)oxy)pyridin-3-yl)ethyl)amino)pyrimidin-4-yl)-4-isopropyloxazolidin-2-one]
7 |  | 107 | 285 | C=CC(=O)Nc1cccc(-c2cnc(C(C)Nc3nccc(N4C(=O)OC[C@@H]4C(C)C)n3)nc2)c1 (stereo partly drawn) [IS013, N-(3-(2-(1-((4-((S)-4-isopropyl-2-oxooxazolidin-3-yl)pyrimidin-2-yl)amino)ethyl)pyrimidin-5-yl)phenyl)acrylamide]
8 |  |  | 2.61 | C=CC(=O)N1CCN(Cc2ccc([C@H](C)Nc3nc(N4C(=O)OC[C@@H]4C(C)C)c4sccc4n3)cc2)CC1 [IS014, (S)-3-(2-(((S)-1-(4-((4-acryloylpiperazin-1-yl)methyl)phenyl)ethyl)amino)thieno [3,2-d]pyrimidin-4-yl)-4-isopropyloxazolidin-2-one]
